Experiments:
[1] = test system: dnTGF-βRII mice; assay: dnTGF-βRII mice 12 wk (early stage PBC model) treated 1 wk by osmotic minipump; type: in vivo, mouse; settings: dnTGF-βRII 12 wk
Protocol: Briefly, we used wild-type (WT), dnTGFβRII 12 wk and dnTGFβRII 34 wk mice treated with control or SR antagonist (SCT 5-27) minipump (10 μg/kg/day) for 1 wk. Hepatic damage was shown by H&E. IBDM and cholangiocyte proliferation were measured by immunohistochemistry for CK-19 and Ki67, respectively. Biliary apoptosis was evaluated by TUNEL staining. Senescence was measured in cholangiocytes by immunofluorescence for CCL2 or p16 co-stained with CK-19 (to image bile ducts) and SA-β-Galactosidase activity. Hepatic fibrosis was assessed by qPCR for collagen-1a and α-SMA in total liver, and quantification of Sirius Red staining. Hepatic stellate cell (HSC) activation was evaluated by immunofluorescence (IF) for Syp-9. HSC senescence was evaluated by IF for CCL2 or p16 co-stained with desmin (to visualize HSCs). Secretin levels in serum and bile were measured by EIA. Bile and serum were obtained from human control, early PBC and advanced PBC patients, and secretin was evaluated by EIA.
All animal procedures were performed according to protocols approved by the Baylor Scott & White Health IACUC Committee. Transgenic mice expressing a dominant-negative form of the human transforming growth factor-beta receptor II (dnTGF-βRII) were obtained from Dr. M. Eric Gershwin at UC Davis Health (Sacramento, Calif.), and background-matched wild-type (WT, strain C57BL/6) mice were purchased from Charles River Laboratories (Wilmington, Mass.); the breeding colony is established in our animal facility. Animals were maintained in micro-isolator cages in a temperature-controlled environment with 12/12-hr light/dark cycles and fed ad libitum standard chow with free access to drinking water. Studies were performed in 12 wk-old WT mice, and 12 wk-old (mimic early stage PBC) and 32 wk-old (mimic late stage PBC) female and male dnTGF-βRII mice (25-30 gm) that were treated with either saline, secretin (Sct; 2.5 nmoles/kg body weight per day; Bachem, Torrance, Calif.) or the secretin receptor (SR) antagonist, Sec 5-27 (10 μg/kg body weight per day; Thermo Fisher Scientific, Waltham, Mass.) for 1 wk by intraperitoneally implanted osmotic minipump. Liver tissue samples and blocks (formalin-fixed, paraffin-embedded and OCT-embedded), serum, bile, cholangiocytes, and cholangiocyte supernatants (after incubation at 37° C. for 4 hr) were collected as described.
Hematoxylin and eosin (H&E) staining was performed in formalin-fixed, paraffin-embedded liver sections (4-5 μm, 3 samples from 3 different animals) to determine liver morphology. H&E stained liver sections were evaluated by a board-certified pathologist to assess the degree of lobular damage, hepatic necrosis and portal inflammation. At least 10 different portal areas were evaluated for each parameter. Liver sections were examined in a coded fashion by BX-51 light microscopy (Olympus, Tokyo, Japan) equipped with a camera (See, Mancinelli, R et al., Ischemia reperfusion of the hepatic artery induces the functional damage of large bile ducts by changes in the expression of angiogenic factors. Am J Physiol Gastrointest Liver Physiol 2015; 309:G865-873 (2015); Taffetani S et al., Prolactin stimulates the proliferation of normal female cholangiocytes by differential regulation of Ca2+-dependent PKC isoforms, BMC Physiol 7:6 (2007)).
Serum levels of alkaline phosphatase (ALP) and γ-glutamyltransferase (γGT) are commonly used to diagnose PBC (Heathcote, E J, Management of primary biliary cirrhosis. The American Association for the Study of Liver Diseases practice guidelines, Hepatology 31:1005-1013 (2000)); therefore, were measured serum levels of ALP and γGT in mouse serum samples using the Alkaline Phosphatase Assay Kit and γ-Glutamyltransferase Activity Colorimetric Assay Kit, respectively (Abcam; Cambridge, Mass.).
Early stage PBC is identified by cholangiocyte proliferation, whereas late stage PBC is characterized by ductopenia. […]

[2] = test system: IMCLs; assay: IMCLs treated with Sct with/without microRNA 125b mimic precursor, TGF-β1 or r-VEGFA (Example 4); type: cell-based, mouse; settings: Sct 10 nM, 12 hr
Protocol: Cholangiocytes were obtained by immunoaffinity separation, Cholangiocytes were obtained by immunoaffinity separation as described herein above, using a monoclonal antibody (a gift from Dr. R. Faris, Brown University, Providence, R.I.) that is expressed by all intrahepatic cholangiocytes. Cell viability (greater than 97%) was assessed by trypan blue exclusion. HSCs were isolated by LCM as described herein above. Frozen liver sections (n=3, 10 μm thick) were incubated overnight with an antibody against desmin (marker of stellate cells). Following staining, desmin-positive HSCs were dissected from the slides by a LCM system Leica LMD7000 (Buffalo Grove, Ill.) and collected into a PCR tube before being analyzed. The RNA from HSCs was extracted with the Arcturus PicoPure RNA isolation kit (Thermo Fisher Scientific CO, Mountain View, Calif.). The in vitro studies were performed in our immortalized murine biliary cell lines (IMCLs) and human hepatic stellate cell lines (HHSteCs, Sciencell, Carlsbad, USA).
In biliary supernatants, the levels of TGF-β1 were measured by ELISA kits. […] We also evaluated by immunofluorescence the expression of VEGFR-2 in cell smears of IMCLs and HHSteCs. […]

Which results are given for secretin [Sct]?
HSC activation (SYP-9 staining) [1]: further enhanced; biliary senescence (p16, p18, p21, CCL2) [1]: further increased; cholangiocyte apoptosis (TUNEL-positive cholangiocytes) [1]: further reduced; liver damage (H&E: portal inflammation, inflammatory infiltration, lobular necrosis) [1]: further increased; Sct, SR, CFTR and AE2 expression ([1]; vs saline treated): further increase; collagen content / deposition (Sirius Red), hepatic fibrosis ([1]; vs saline treated): further enhanced; serum levels of ALP and γGT ([1]; vs saline treated): further increased; intrahepatic bile duct mass (IBDM, CK-19) ([1]; vs saline treated, 1 wk minipump): further increase; TGF-β1 mRNA expression of IMCLs and TGF-β1 levels in IMCLs supernatant [2]: increased
